We go through three compounds from patent publication US9428431B2, “Compositions comprising CB receptor agonists, uses thereof and methods for their preparation” (Yissum Research Development Company of the Hebrew …, priority 2008, dated 2016).

Test [1] has as its target T1, CB1 receptor (Rattus norvegicus, UniProt P20272).
T1 construct: synaptosomal membranes were prepared from the brains of Sabra rats by homogenization and gradient centrifugation; from tissue; host or cells: brain of Sabra rats, synaptosomal membranes
Put plainly: CB1 receptor binding, [3H]HU-243 displacement, synaptosomal membranes. Also on record: species or system Sabra rats. The procedure:
For CB1 receptor binding, synaptosomal membranes were prepared from the brains of Sabra rats by homogenization and gradient centrifugation (Devane et al, 1992). For CB2 receptor binding assay, COS-7 cells were transfected with plasmids containing CB2 cDNA, and crude membranes were prepared (Munro et al, 1993).
Bound and free radioligands were separated by centrifugation. The data were normalized to 100% of specific binding, which was determined with 50 nM unlabeled HU-243.

A further test has as its system OVX mouse model. Put plainly: Rescue of ovariectomy (OVX)-induced trabecular bone loss, μCT of L3 vertebrae. The test is classed as in vivo. The text has this: Data are mean±S.E. obtained in 6 mice per condition. (*) p<0.05.
Using this experimental system for testing bone anabolic activity, OVXed mice are left untreated to allow for bone loss to occur, followed by a treatment period intended for reversal of the bone loss (Alexander et al, 2001).

In test [2] the test system is Osteoblastic MC3T3 E1 cells. Put plainly: Stimulation of MC3T3 E1 osteoblastic cell number. The test is classed as cell-based. The note with it: for ligand concentration that doubled cell number: MC3T3 E1 cells, last 46 hours in culture, DMSO solution. As for the experimental part:
Osteoblastic MC3T3 E1 cells were cultured as reported in Miguel et al, 2005. […] Control cultures were treated only with the DMSO solvent (Ofek et al, 2006).

The test system of another test is mice. The note with it: cited from earlier work.
The target in the next test is T2, CB2 receptor (Homo sapiens, UniProt P34972).
T2 construct: expressed in transfected cells; host or cells: COS-7 cells
T2 sequence (P34972 whole entry): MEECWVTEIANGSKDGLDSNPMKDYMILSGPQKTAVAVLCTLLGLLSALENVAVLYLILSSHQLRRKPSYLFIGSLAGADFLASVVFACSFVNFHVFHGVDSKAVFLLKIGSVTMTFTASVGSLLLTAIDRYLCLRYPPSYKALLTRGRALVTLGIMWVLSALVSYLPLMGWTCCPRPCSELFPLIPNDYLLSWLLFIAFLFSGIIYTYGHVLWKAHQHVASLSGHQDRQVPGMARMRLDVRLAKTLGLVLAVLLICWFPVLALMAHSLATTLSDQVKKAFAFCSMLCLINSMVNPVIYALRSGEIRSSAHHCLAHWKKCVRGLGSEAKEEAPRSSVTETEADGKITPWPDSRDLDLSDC
The settings on record: Hanus et al.; cited from earlier work.

Test [3] deals with osteoblastogenesis / osteoclastogenesis. The note with it: cited from earlier work.
The target of test [4] is T1, CB1 receptor. The note with it: cited from earlier work.

SMILES strings stand for the structures. Where two headings read alike, the source gives them in different places.

T1 sequence (P20272 whole entry): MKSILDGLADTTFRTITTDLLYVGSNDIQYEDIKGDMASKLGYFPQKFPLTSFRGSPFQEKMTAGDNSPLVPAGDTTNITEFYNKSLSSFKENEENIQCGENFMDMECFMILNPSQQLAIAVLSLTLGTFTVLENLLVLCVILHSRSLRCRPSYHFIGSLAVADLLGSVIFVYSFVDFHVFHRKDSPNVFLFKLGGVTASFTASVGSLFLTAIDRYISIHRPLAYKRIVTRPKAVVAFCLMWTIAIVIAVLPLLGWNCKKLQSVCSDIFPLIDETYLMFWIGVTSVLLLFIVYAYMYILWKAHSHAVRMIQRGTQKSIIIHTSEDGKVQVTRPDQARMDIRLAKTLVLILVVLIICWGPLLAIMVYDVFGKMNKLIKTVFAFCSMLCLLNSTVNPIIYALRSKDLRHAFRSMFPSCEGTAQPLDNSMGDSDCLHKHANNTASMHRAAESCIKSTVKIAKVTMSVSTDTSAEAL

As a reminder, the Ki is a measure of affinity in units of concentration, obtained from inhibition or displacement. Regarding `CCCCCCC(C)(C)c1cc(OC)c([C@@H]2C=C(CO)C3CC2C3(C)C)c(OC)c1` (single isomer, unassigned; (-)) [HU-433, (−)-2-(3-myrtenyl)-5-dimethylheptyl resorcinol], the Ki on CB1 receptor [1] was greater than 20 µM. Further, the “binding to CB1 receptor” value at CB1 receptor [1] (present example) is “did not bind to CB1 receptor”. For the same compound, the “rescue of OVX-induced trabecular bone loss” value with OVX mouse model (0.2 mg/Kg/day intraperitoneal for 6 weeks, starting 6 weeks after OVX, L3 vertebrae μCT) was “significantly rescued almost the entire OVX-induced trabecular bone loss”. In addition, the “effect compared with reversal of bone volumetric density by parathyroid hormone (1-34)” value in the test with OVX mouse model (comparison with Alexander et al, 2001) is “substantially greater”. For the same compound, in test [2] (MC3T3 E1 cell number assay), the “in vitro skeletal activity compared to HU-308” value was 1000 fold. For the same compound, the “ligand concentration that doubled cell number” value in test [2] is given as 10^−11 M.
For `CCCCCCC(C)(C)c1cc(OC)c([C@@H]2C=C(CO)[C@@H]3C[C@H]2C3(C)C)c(OC)c1` [HU-308], the OVX-induced bone loss result in the test with mice (another mouse model, Bab et al, 2008) is reported as “rescues”. Moreover, in the test with mice (mice, Ofek et al, 2006), the bone formation entry was “stimulates bone formation”, the bone resorption entry is on record as “inhibits bone resorption” and the “ovariectomy (OVX)-induced bone loss” value is given as “attenuating”. The “reversal of OVX-induced trabecular bone loss” value in the test on OVX mouse model (20 mg/Kg/day intraperitoneal for 6 weeks, starting 6 weeks after OVX, L3 vertebrae μCT) was 50%. In addition, the “ligand concentration that doubled cell number” value in test [2] was 10^−8 M. For the same compound, the “binding to CB2 receptor” value on CB2 receptor is listed as “potent binding to CB2 receptor”. For the same compound, in test [3], the in vitro osteoblastogenesis entry is “stimulates” and the in vitro osteoclastogenesis entry is “inhibits”. The “binding to CB1 receptor” value at CB1 receptor [4] (Hanus et al.) is “did not bind to CB1 receptor”. Moreover, the Ki at CB1 receptor [4] (read-out: Ki CB1, HU-308, from Hanus et al, 1999) was greater than 10 µM.
Take `CCCCCCC(C)(C)c1cc(O)c2c(c1)OC(C)(C)[C@@H]1CC[C@@H](CO)C[C@@H]21` [[^3H]HU-243]: the Kd at CB1 receptor [4] (radioligand probe, read-out: dissociation constant for the CB1 receptor) was 0.045 ± 0.007 nM.
